Data from patent US11154057B2, “Use of nootkatone to treat mosquito infestations” (EVOLVA SA, priority 2016, dated 2021).
Where two headings read alike, the source gives them in different places.

How the values were obtained:
Assay type in all cases: in vivo
[1] = test system: mosquito larvae
Description: In this example, concentration titration was performed to determine effective concentrations of nootkatone in nootkatone-containing protective compositions that maintain larvicidal activity, and to determine the effect of surface area on larvicidal activity of nootkatone-containing compositions.
One milliliter of a solution of nootkatone in ethanol was applied directly to 200 milliliters of water containing larvae, using a micropipette. One treatment condition used 3% (v/v) nootkatone in ethanol, a second treatment condition used 1% (v/v) nootkatone in ethanol, and a third treatment used 0.5% (v/v) nootkatone in ethanol, for final concentrations of 30, 10, or 5 mg of nootkatone added per container. One milliliter of pure ethanol was used as a control. Three replicates of 25 larvae were tested per treatment in small- (250 mL flasks (23.8 cm^2 surface area) and medium-sized (600 mL beakers (54 cm^2 surface area)) containers, but only two replicates were made in large 1000 mL beakers (86.6 cm^2 surface area).
Containers were lightly covered with paper towels. Indicated surface areas were calculated based on the inside diameter of the container at the surface level when 200 mL water was added to the container.
(§1) Larvae were observed after 24 hours post-introduction to the test containers.
(§2) Readings were discontinued if treated mortality reached 100%, or control mortality exceeded 20%.

[2] = test system: Aedes aegypti larvae
Source text: This example describes a laboratory bioassay in which groups of mosquito larvae were exposed to a nootkatone-containing composition to determine larval susceptibility to nootkatone.
One milliliter of a solution of nootkatone in ethanol was applied directly to 100 milliliters of water containing larvae, using a micropipette. One treatment condition used 3% (v/v) nootkatone in ethanol, and a second treatment condition used 1% (v/v) nootkatone in ethanol, for final concentrations of 0.03% or 0.01% (v/v), respectively. One milliliter of pure ethanol was used as a control. Four replicates of 25 larvae were tested per treatment. Clean, glass 600 mL laboratory beakers were used as test containers such that the surface area of the water to be treated was 54 cm^2.
as §1, §2

[3] = test system: Aedes aegypti larvae; assay: Larval bioassay comparing nootkatone with soy oil and mineral oil (Example No. 2); settings: FIG. 3
Source text: This example describes a laboratory bioassay in which groups of mosquito larvae were exposed to compositions that contain oils, but not nootkatone, to determine whether larval mortality was due to suffocation by oils in general, or due to a specific property of nootkatone.
One milliliter of a solution of oil in ethanol was applied directly to 100 milliliters of water containing larvae, using a micropipette. One treatment condition used 3% (v/v) soybean oil in ethanol, and a second treatment condition used 3% (v/v) mineral oil in ethanol, for final concentrations of 0.03% (v/v), respectively. One milliliter of pure ethanol was used as a control, and 0.03% (v/v) nootkatone in ethanol was included as a comparison of efficacy. Two replicates of 25 larvae were tested per treatment in clean, glass 600 mL beakers.
as §2

[4] = test system: 3rd and 4th instar larvae; assay: Duration of protection from larvae, Method 2: individual pre-treated beakers used once (Example No. 4); settings: for larvae mortality rates: through one week of treatment
Description: Method 2: Clean, glass 600 mL beakers were set up as test containers (such that the surface area of water to be treated was 54 cm^2), and were treated with 1 mL of 1% or 3% nootkatone in ethanol (v/v), or 1 mL of ethanol alone, to achieve a final concentration of 0.01% or 0.03% nootkatone (v/v), respectively. Beakers were lightly covered with Kimwipes to prevent contamination, and to reduce evaporation. Beakers treated with 1 mL of 100% ethanol were used as controls. Four cohorts of 25 3rd and 4th instar larvae were added to individual beakers per day, 3-14 days after treatment with nootkatone, and mortality of larvae was recorded 24 and 48 hours after addition of larvae to beakers.
For the experimental data shown in FIGS. 5-7, the method used included addition and removal of water, and potentially, removal of nootkatone, on each succeeding day. In a new experiment, individual beakers were set up in advance, so that all beakers were used one and only one time to test the longevity of nootkatone, with the only possible loss due to evaporation.
In a separate experiment using the same setup, nootkatone-treated beakers were held for two weeks prior to addition of larvae. Due to the extended time delay, more than 50% of the original liquid volume had evaporated. To avoid having a potentially higher concentration of nootkatone than the desired 0.03%, sterile water was added to bring the total volume back to 100 mL before larval cohorts were added.

C=C(C)[C@@H]1CCC2=CC(=O)C[C@@H](C)[C@]2(C)C1 [Nootkatone, nootkatone]
larval mortality ([1]; 5 mg nootkatone in 200 mL water, 250 mL flasks, 23.8 cm^2, 24 hours): 68%
larvae killed ([1]; 5 mg nootkatone in 200 mL water, largest containers, 86.6 cm^2, 24 hours): did not kill
larval mortality ([1]; 5 mg nootkatone in 200 mL water, medium sized containers, 54 cm^2, 24 hours): 16%
larvae killed in 24 hours ([1]; 10 mg nootkatone in 200 mL water, flasks with smallest surface area 23.8 cm^2 (about 0.42 mg/cm^2)): killed all larvae
larvae killed in 24 hours ([1]; 30 mg nootkatone in 200 mL water, any container size (23.8, 54, 86.6 cm^2)): kill all larvae
surface concentration at which nootkatone exhibits larvicidal properties ([1]; 24 hours, water surface): at least 0.09 mg/cm^2
larvae killed, on average ([2]; 0.01% (v/v) nootkatone final, 24 hours of exposure, four replicates): 80%
mortality ([2]; 0.01% (v/v) nootkatone final, after 48 hours): 100%
Dead (mortality), mean ([2]; 0.03% (v/v) nootkatone final (1 mL of 3% in ethanol to 100 mL water), 54 cm^2, 24 hours post introduction): 100%
Affected, mean ([2]; 0.03% (v/v) nootkatone final, 1% ethanol, 100 mL water, 54 cm^2, 24 hours post introduction): 100.0%
Morbidity (M), mean ([2]; 0.03% (v/v) nootkatone final, 1% ethanol, 100 mL water, 54 cm^2, 24 hours post introduction, four replicates of 25 larvae): 0%
larvae killed ([3]; 0.03% (v/v) final in water with ethanol, in 24 hours, two replicates of 25 larvae): 100%
effectiveness of killing larvae versus soy oil and mineral oil ([3]; 0.03% (v/v), after 24 hr treatment): more effective than either soy oil or mineral oil
larvae mortality rates ([4]; 0.01% nootkatone (v/v), twenty-four hours of exposure, FIG. 8): over 80%
killing at 24 hours ([4]; 0.01% nootkatone, larvae added 3 days after water treatment, FIG. 8): 98%
killing at 24 hours ([4]; 0.01% nootkatone, larvae added 7 days after water treatment, FIG. 8): 81%
larval mortality ([4]; 0.01% nootkatone, scored 48 hours after addition of larvae, 3-7 days after water treatment, FIG. 9): 100%
nootkatone killing duration ([4]; 0.03% concentration): at least two weeks
larvae killed within 24 hours ([4]; 0.03% nootkatone, beakers held two weeks before larvae, volume restored to 100 mL, FIG. 10): 100%
larvae mortality rates ([4]; 0.03% nootkatone, forty-eight hours of exposure, FIG. 9): 100%
larvae killed within 24 hours ([4]; 0.03% nootkatone, larvae added 3-7 days after water treatment, FIG. 8): 100%
